PMC5291411, “Cytotoxic conjugates of betulinic acid and substituted triazoles prepared by Huisgen Cycloaddition from 30-azidoderivatives” (PLoS ONE, 2017)

Key:
CCRF-CEM = test: Cytotoxic MTS assay, CCRF-CEM; type: cell-based; settings: Homo sapiens, 72 h, T-lymphoblastic leukemia
Excerpt: (§1) Cytotoxic activity of all synthesized compounds was investigated in vitro against eight human cancer cell lines and two non-tumor fibroblasts using the standard MTS test (Table 1). The cancer cell lines were derived from T-lymphoblastic leukemia CCRF-CEM, leukemia K562 and their multiresistant counterparts expressing P-glycoprotein, MRP1 and LRP proteins (CEM-DNR, K562-TAX), solid tumors including lung (A549) and colon (HCT116, HCT116p53-/-) carcinomas, osteosarcoma cell line (U2OS), and for comparison, tests were performed on two human non-cancer fibroblast cell lines (BJ, MRC-5).
(§2) Biological assays were performed in concordance with our previous publications [[29], [58]; [60]; [61]]. All cells (if not indicated otherwise) were purchased from the American Tissue Culture Collection (ATCC). The CCRF-CEM line is derived from T lymphoblastic leukemia, evincing high chemosenzitivity, K562 represent cells from an acute myeloid leukemia patient sample with bcr-abl translocation, U2OS line is derived from osteosarcoma, HCT116 is colorectal tumor cell line and its p53 gene knock-down counterpart (HCT116p53-/-, Horizon Discovery Ltd, UK) is a model of human cancers with p53 mutation frequently associated with poor prognosis, A549 line is lung adenocarcinoma. The daunorubicin resistant subline of CCRF-CEM cells (CEM-DNR bulk) and paclitaxel resistant subline K562-TAX were selected in our laboratory by the cultivation of maternal cell lines in increasing concentrations of daunorubicine or paclitaxel, respectively. The CEM-DNR bulk cells overexpress MRP-1 and P-glycoprotein protein, while K562-TAX cells overexpress P-glycoprotein only. Both proteins belong to the family of ABC transporters and are involved in the primary and/or acquired multidrug resistance phenomenon. MRC-5 and BJ cell lines were used as a non-tumor control and represent human fibroblasts. The cells were maintained in nunc/corning 80 cm^2 plastic tissue culture flasks and cultured in cell culture medium according to ATCC or Horizon recommendations (DMEM/RPMI 1640 with 5 g/L glucose, 2 mM glutamine, 100 U/mL penicillin, […] streptomycin, 10% fetal calf serum, and NaHCO3).
(§3) MTS assay was performed at Institute of Molecular and Translational Medicine by robotic platform (HighResBiosolutions). Cell suspensions were prepared and diluted according to the particular cell type and the expected target cell density (25000–35000 cells/mL based on cell growth characteristics). Cells were added by automatic pipetor (30 μL) into 384 well microtiter plates. All tested compounds were dissolved in 100% DMSO and four-fold dilutions of the intended test concentration were added in 0.15 μL aliquots at time zero to the microtiter plate wells by the echoacustic non-contact liquid handler Echo550 (Labcyte). The experiments were performed in technical duplicates and three biological replicates at least. The cells were incubated with the tested compounds for 72 h at 37°C, in a 5% CO2 atmosphere at 100% humidity. At the end of the incubation period, the cells were assayed by using the MTS test. Aliquots (5 μL) of the MTS stock solution were pipetted into each well and incubated for additional 1–4 h. After this incubation period, the optical density (OD) was measured at 490 nm with an Envision reader (Perkin Elmer). Tumor cell survival (TCS) was calculated by using the following equation: TCS = (ODdrug-exposed well/mean ODcontrol wells) × 100%. The IC50 value, the drug concentration that is lethal to 50% of the tumor cells, was calculated from the appropriate dose-response curves in Dotmatics software.

CEM-DNR = test: Cytotoxic MTS assay, CEM-DNR; type: cell-based; settings: Homo sapiens, 72 h, daunorubicin resistant subline of CCRF-CEM
Excerpt: as §1, §2, §3

K562 = test: Cytotoxic MTS assay, K562; type: cell-based; settings: Homo sapiens, 72 h, leukemia
Excerpt: as §1, §2, §3

K562-TAX = test: Cytotoxic MTS assay, K562-TAX; type: cell-based; settings: Homo sapiens, 72 h, paclitaxel resistant subline of K562
Excerpt: as §1, §2, §3

A549 = test: Cytotoxic MTS assay, A549; type: cell-based; settings: Homo sapiens, 72 h, lung adenocarcinoma
Excerpt: as §1, §2, §3

HCT116 = test: Cytotoxic MTS assay, HCT116; type: cell-based; settings: Homo sapiens, HCT-116, 72 h, colorectal tumor
Excerpt: as §1, §2, §3

HCT116p53-/- = test: Cytotoxic MTS assay, HCT116p53-/-; type: cell-based; settings: Homo sapiens, 72 h, p53 knock-down colorectal tumor
Excerpt: as §1, §2, §3

U2OS = test: Cytotoxic MTS assay, U2OS; type: cell-based; settings: Homo sapiens, 72 h, osteosarcoma
Excerpt: as §1, §2, §3

BJ = test: Cytotoxic MTS assay, BJ fibroblasts; type: cell-based; settings: Homo sapiens, 72 h, non-tumor fibroblasts
Excerpt: as §1, §2, §3

MRC-5 = test: Cytotoxic MTS assay, MRC-5 fibroblasts; type: cell-based; settings: Homo sapiens, MRC5, 72 h, non-tumor fibroblasts
Excerpt: as §1, §2, §3

CCRF-CEM cells [1] = test: Cell cycle and apoptosis analysis (propidium iodide flow cytometry); type: cell-based, human
Experimental: (§4) Together with the treated cells, control sample containing vehicle was harvested at the same time point after 24 h. After another 24 hours, cells were then washed with cold PBS and fixed in 70% ethanol added dropwise and stored overnight at -20°C. Afterwards, cells were washed in hypotonic citrate buffer, treated with RNAse (50 μg/mL) and stained with propidium iodide. Flow cytometer using a 488 nm single beam laser (Becton Dickinson) was used for measurement. Cell cycle was analyzed in the program ModFitLT (Verity), and apoptosis was measured in logarithmic model expressing percentage of the particles with propidium content lower than cells in G0/G1 phase (<G1) of the cell cycle. Half of the sample was used for pH3^Ser10 antibody (Sigma) labeling and subsequent flow cytometry analysis of mitotic cells.

CCRF-CEM cells [2] = test: pH3Ser10 antibody labeling, flow cytometry of mitotic cells; type: cell-based, human
Experimental: as §4

CCRF-CEM cells [3] = test: BrDU incorporation analysis (DNA synthesis); type: cell-based, human; parameters: DNA synthesis: unit not given here
Experimental: as §4
For this analysis, the same procedure of cultivation as previously was used. Before harvesting, 10 μM 5-bromo-2-deoxyuridine (BrDU), was added to the cells for puls-labeling for 30 min. Cells were fixed with ice-cold 70% ethanol and stored overnight. Before the analysis, cellswere washed with PBS, and resuspended in 2 M HCl for 30 min at room temperature to denature their DNA. Following neutralization with 0.1 M Na2B4O7 (Borax), cells were washed with PBS containing 0.5% Tween-20 and 1% BSA. Staining with primary anti-BrDU antibody (Exbio) for 30 min at room temperature in the dark followed. Cells were than washed with PBS and stained with secondary antimouse-FITC antibody (Sigma). Cells were then washed with PBS again and incubated with propidium iodide (0.1 mg/mL) and RNAse A (0.5 mg/mL) for 1 h at room temperature in the dark and afterwards analyzed by flow cytometry using a 488 nm single beam laser (FACSCalibur, Becton Dickinson).

CCRF-CEM cells [4] = test: BrU incorporation analysis (RNA synthesis); type: cell-based, human; parameters: RNA synthesis: unit not given here
Experimental: as §4
Cells were cultured and treated as above. Before harvesting, pulse-labeling with 1 mM 5-bromouridine (BrU) for 30 min followed. The cells were then fixed in 1% buffered paraformaldehyde with 0.05% of NP-40 in room temperature for 15 min, and then stored in 4°C overnight. Before measurement, they werewashed in PBS with 1% glycin, washed in PBS again, and stained by primary anti-BrDU antibody crossreacting to BrU (Exbio) for 30 min at room temperature in the dark. After another washing step in PBS cells were stained by secondary antimouse-FITC antibody (Sigma). Following the staining, cells were washed with PBS and fixed with 1% PBS buffered paraformaldehyde with 0.05% of NP-40 for 1 hour. Cells were washed by PBS, incubated with propidium iodide (0.1 mg/mL) and RNAse A (0.5 mg/mL) for 1 h at room temperature in the dark, and finally analyzed by flow cytometry using a 488 nm single beam laser (FACS Calibur, Becton Dickinson).

SMILES | IC50 (CCRF-CEM) [µM] | IC50 (CEM-DNR) [µM] | IC50 (K562) [µM] | IC50 (K562-TAX) [µM] | IC50 (A549) [µM] | IC50 (HCT116) [µM] | IC50 (HCT116p53-/-) [µM] | IC50 (U2OS) [µM] | IC50 (BJ) [µM] | IC50 (MRC-5) [µM] | G0/G1 (%) (CCRF-CEM cells [1]; 1 × IC50) | G2/M (%) (CCRF-CEM cells [1]; 1 × IC50) | S (%) (CCRF-CEM cells [1]; 1 × IC50) | G0/G1 (%) (CCRF-CEM cells [1]; 5 × IC50) | G2/M (%) (CCRF-CEM cells [1]; 5 × IC50) | S (%) (CCRF-CEM cells [1]; 5 × IC50) | Sub G1 (%) (CCRF-CEM cells [1]; 5 × IC50) | pH3Ser10 (%) (CCRF-CEM cells [2]; 1 × IC50) | pH3Ser10 (%) (CCRF-CEM cells [2]; 5 × IC50) | effect on DNA synthesis (in words) (CCRF-CEM cells [3]) | further results
C=C(CN=[N+]=[N-])[C@@H]1CC[C@]2(C(=O)O)CC[C@]3(C)C(CCC4[C@@]5(C)CC[C@H](OC(C)=O)C(C)(C)C5CC[C@]43C)C12 (stereo partly drawn) [Compound 6, 3β-O-Acetyl-30-azidobetulinic acid] | 7.4 | 19.2 | 12.3 | 15.5 | 17.6 | 18.6 | 19.7 | 20.9 | 26.7 | 20 | 49.3 | 20.3 | 30.4 | 41.4 | 23.8 | 34.8 | 70.0 | 1.80 | 2.68 | inhibiting | Sub G1 (%) (CCRF-CEM cells [1]; 1 × IC50): 10.7%; DNA synthesis (CCRF-CEM cells [3]; 1 × IC50, BrDU incorporation): 33.0; DNA synthesis (CCRF-CEM cells [3]; 5 × IC50, BrDU incorporation): 1.00; effect on RNA synthesis (in words) (CCRF-CEM cells [4]): inhibiting; RNA synthesis (CCRF-CEM cells [4]; 1 × IC50, BrU incorporation): 14.1; RNA synthesis (CCRF-CEM cells [4]; 5 × IC50, BrU incorporation): 1.70
C=C(CBr)[C@@H]1CC[C@]2(C(=O)O)CC[C@]3(C)C(CCC4[C@@]5(C)CC[C@H](OC(C)=O)C(C)(C)C5CC[C@]43C)C12 (stereo partly drawn) [Compound 4, 3β-O-Acetyl-30-bromobetulinic acid] | 5.7 | 15.3 | 21.7 | 15.8 | 13.2 | 15.9 | 14.1 | 21.2 | 31.7 | 24.2 | 47.3 | 16.8 | 35.9 | 33.7 | 23.2 | 43.0 | 39.7 | 1.34 | 2.35 | inhibiting | Sub G1 (%) (CCRF-CEM cells [1]; 1 × IC50): 9.4%; DNA synthesis (CCRF-CEM cells [3]; 1 × IC50, BrDU incorporation): 38.6; DNA synthesis (CCRF-CEM cells [3]; 5 × IC50, BrDU incorporation): 5.80; effect on RNA synthesis (in words) (CCRF-CEM cells [4]): inhibiting; RNA synthesis (CCRF-CEM cells [4]; 1 × IC50, BrU incorporation): 56.3; RNA synthesis (CCRF-CEM cells [4]; 5 × IC50, BrU incorporation): 24.8
C=C(Cn1cc(-c2ccccn2)nn1)[C@@H]1CC[C@]2(C(=O)O)CC[C@]3(C)C(CCC4[C@@]5(C)CC[C@H](OC(C)=O)C(C)(C)C5CC[C@]43C)C12 (stereo partly shown) [Compound 9c] | 9 | 14.4 | 22.1 | 13.8 | 13.2 | 30.3 | 13.7 | 16 | 29.5 | 27.6 | 48.9 | 20.3 | 30.9 | 40.5 | 21.0 | 38.5 | 65.6 | 1.47 | 0.89 | inhibiting | Sub G1 (%) (CCRF-CEM cells [1]; 1 × IC50): 7.2%; DNA synthesis (CCRF-CEM cells [3]; 1 × IC50, BrDU incorporation): 20.3; DNA synthesis (CCRF-CEM cells [3]; 5 × IC50, BrDU incorporation): 2.90; effect on RNA synthesis (in words) (CCRF-CEM cells [4]): inhibiting; RNA synthesis (CCRF-CEM cells [4]; 1 × IC50, BrU incorporation): 25.4; RNA synthesis (CCRF-CEM cells [4]; 5 × IC50, BrU incorporation): 0.40
C=C(Cn1cc(-c2ccccc2C=O)nn1)[C@@H]1CC[C@]2(C(=O)O)CC[C@]3(C)C(CCC4[C@@]5(C)CC[C@H](O)C(C)(C)C5CC[C@]43C)C12 (stereo partly shown) [Compound 11b] | 8.5 | 11.5 | > 50 | 13.7 | > 50 | 26.3 | 26.9 | > 50 | > 50 | > 50 | 59.0 | 15.7 | 25.3 | 45.5 | 19.1 | 35.4 | 65.6 | 0.88 | 1.19 | inhibiting | DNA synthesis (CCRF-CEM cells [3]; 1 × IC50, BrDU incorporation): 20.0; DNA synthesis (CCRF-CEM cells [3]; 5 × IC50, BrDU incorporation): 6.40; effect on RNA synthesis (in words) (CCRF-CEM cells [4]): inhibiting; RNA synthesis (CCRF-CEM cells [4]; 1 × IC50, BrU incorporation): 48.3; RNA synthesis (CCRF-CEM cells [4]; 5 × IC50, BrU incorporation): 38.1
C=C(Cn1cc(-c2ccccc2C=O)nn1)[C@@H]1CC[C@]2(C(=O)O)CC[C@]3(C)C(CCC4[C@@]5(C)CC[C@H](OC(C)=O)C(C)(C)C5CC[C@]43C)C12 (stereo partly shown) [Compound 9b] | 3.3 | 4 | 3.6 | 3.9 | 14.8 | 6.4 | 9.5 | 12.8 | 31.3 | 28.9 | 58.6 | 19.5 | 21.9 | 35.7 | 18.1 | 46.2 | 51.9 | 1.19 | 0.37 | inhibiting | inhibition of the cell cycle in G0/G1 (in words) (CCRF-CEM cells [1]): highest accumulation; Sub G1 (%) (CCRF-CEM cells [1]; 1 × IC50): 10.8%; DNA synthesis (CCRF-CEM cells [3]; 1 × IC50, BrDU incorporation): 22.6; DNA synthesis (CCRF-CEM cells [3]; 5 × IC50, BrDU incorporation): 0.55; effect on RNA synthesis (in words) (CCRF-CEM cells [4]): inhibiting; RNA synthesis (CCRF-CEM cells [4]; 1 × IC50, BrU incorporation): 15.8; RNA synthesis (CCRF-CEM cells [4]; 5 × IC50, BrU incorporation): 0.08
